Data reported in patent US7247612B2, “Methods of treating an inflammatory disease with a JJT-1 polypeptide” (Japan Tobacco Inc., priority 1997, dated 2007).

Tested on: rat lymphoblast cells activated with concanavalin A
Test: Aggregation of concanavalin A-activated rat lymphoblast cells
Assay type: cell-based
Details: ConA-activated rat lymphoblasts
Protocol: The hybridomas prepared in Example 1 were screened by analyzing the effect of the antibodies produced in the culture supernatant of the hybridomas on FTL435 cells, which were used as the immunogen. FTL435 cells (5×10^6 cells/ml, 0.1 ml) were seeded into each well of a 96-well microtiter plate and cultivated at 37° C. for an hour in the presence of culture supernatant of each hybridoma (10 μg/ml each).
In order to determine whether the aggregation of FTL435 cells induced by “JTT-1 antibody” stimulation was caused by the cell adhesion between intercellular adhesion molecule-1 (ICAM-1) and lymphocyte function-associated antigen-1 (LFA-1), which is a representative known pathway of cell adhesion, FTL435 cells were cultivated at 37° C. for an hour in the presence of anti-rat ICAM-1 antibody 1A29 (10 μg/ml; IgG1) or anti-rat LFA-1 antibody (10 μg/ml; IgG2a) together with “JTT-1 antibody.”
In order to further analyze the cell agglutination ability of “JTT-1 antibody,” the ability to agglutinate rat lymphoblast cells activated with concanavalin A stimulation was analyzed in the same manner as mentioned above.

CCCCCCCCCCCCCC(=O)O[C@@H]1[C@@H](C)[C@@]2(O)[C@@H](C=C(CO)C[C@]3(O)C(=O)C(C)=C[C@@H]23)[C@@H]2C(C)(C)[C@]12OC(C)=O [phorbol myristate acetate] was tested, and the “Aggregation of activated lymphoblast cells” value was “no aggregation through cell adhesion unless they receive the stimulation”.
